Experimental data from ChEMBL document CHEMBL1156331, “7-Phenylplatensimycin and 11-methyl-7-phenylplatensimycin: more potent analogs of platensimycin” (2010).
In brackets after ≈: the same amount, converted by molar mass.

Columns and labels:
Type in all cases: functional
Staphylococcus aureus [1] = assay: Antimicrobial activity against methicillin-sensitive Staphylococcus aureus isolate 3
Enterococcus faecalis [2] = assay: Antimicrobial activity against vancomycin-resistant Enterococcus faecalis isolate 13
Staphylococcus aureus [3] = assay: Antimicrobial activity against methicillin-sensitive Staphylococcus aureus isolate 2
Enterococcus faecium [4] = assay: Antimicrobial activity against vancomycin-resistant Enterococcus faecium isolate 14
Staphylococcus aureus [5] = assay: Antimicrobial activity against methicillin-resistant Staphylococcus aureus isolate 7
Enterococcus faecalis [6] = assay: Antimicrobial activity against vancomycin-sensitive Enterococcus faecalis isolate 11
Staphylococcus aureus [7] = assay: Antimicrobial activity against methicillin-resistant Staphylococcus aureus isolate 5
Staphylococcus aureus [8] = assay: Antimicrobial activity against methicillin-sensitive Staphylococcus aureus isolate 4
Staphylococcus aureus [9] = assay: Antimicrobial activity against vancomycin-insensitive Staphylococcus aureus isolate 9
Staphylococcus aureus [10] = assay: Antimicrobial activity against methicillin-resistant Staphylococcus aureus isolate 6
Staphylococcus aureus [11] = assay: Antimicrobial activity against methicillin-sensitive Staphylococcus aureus isolate 1
Staphylococcus aureus [12] = assay: Antimicrobial activity against methicillin-resistant Staphylococcus aureus isolate 8
Staphylococcus aureus [13] = assay: Antimicrobial activity against vancomycin-insensitive Staphylococcus aureus isolate 10
Enterococcus faecalis [14] = assay: Antimicrobial activity against vancomycin-resistant Enterococcus faecalis isolate 12
Enterococcus faecium [15] = assay: Antimicrobial activity against vancomycin-resistant Enterococcus faecium isolate 15

| SMILES | MIC (Staphylococcus aureus [1]) [µg/mL] | MIC (Enterococcus faecalis [2]) [µg/mL] | MIC (Staphylococcus aureus [3]) [µg/mL] | MIC (Enterococcus faecium [4]) [µg/mL] | MIC (Staphylococcus aureus [5]) [µg/mL] | MIC (Enterococcus faecalis [6]) [µg/mL] | MIC (Staphylococcus aureus [7]) [µg/mL] | MIC (Staphylococcus aureus [8]) [µg/mL] | MIC (Staphylococcus aureus [9]) [µg/mL] | MIC (Staphylococcus aureus [10]) [µg/mL] | MIC (Staphylococcus aureus [11]) [µg/mL] | MIC (Staphylococcus aureus [12]) [µg/mL] | MIC (Staphylococcus aureus [13]) [µg/mL] | MIC (Enterococcus faecalis [14]) [µg/mL] | MIC (Enterococcus faecium [15]) [µg/mL] |
| --- | --- | --- | --- | --- | --- | --- | --- | --- | --- | --- | --- | --- | --- | --- | --- |
| CC12CC34CC1CC(O2)C3C(C)(CCC(=O)Nc1c(O)ccc(C(=O)O)c1O)C(=O)C=C4c1ccccc1 (stereo not drawn) | 2 (≈ 3.86 µM) | 16 (≈ 30.9 µM) | 0.5 (≈ 0.966 µM) | 2 (≈ 3.86 µM) | < 0.25 | ≤ 0.5 | < 0.25 | < 0.25 | 1 (≈ 1.93 µM) | < 0.25 | 0.25 (≈ 0.483 µM) | 0.5 (≈ 0.966 µM) | 1 (≈ 1.93 µM) | 8 (≈ 15.5 µM) | ≤ 0.5 |
| C[C@@H]1C2OC3(C)CC4(CC13)C(c1ccccc1)=CC(=O)C(C)(CCC(=O)Nc1c(O)ccc(C(=O)O)c1O)C24 (stereo partly drawn) | 0.5 (≈ 0.941 µM) | 8 (≈ 15 µM) | 0.5 (≈ 0.941 µM) | 2 (≈ 3.76 µM) | < 0.25 | 8 (≈ 15 µM) | < 0.25 | < 0.25 | 1 (≈ 1.88 µM) | < 0.25 | < 0.25 | < 0.25 | 4 (≈ 7.52 µM) | 16 (≈ 30.1 µM) | ≤ 0.5 |
| C[C@@H]1C2OC3(C)CC4(C=CC(=O)C(C)(CCC(=O)Nc5c(O)ccc(C(=O)O)c5O)C24)CC13 (stereo partly drawn) | 8 (≈ 17.6 µM) | 64 (≈ 141 µM) | 1 (≈ 2.2 µM) | 2 (≈ 4.39 µM) | 0.5 (≈ 1.1 µM) | 1 (≈ 2.2 µM) | 0.25 (≈ 0.549 µM) | < 0.25 | 2 (≈ 4.39 µM) | 0.5 (≈ 1.1 µM) | 0.25 (≈ 0.549 µM) | 1 (≈ 2.2 µM) | 8 (≈ 17.6 µM) | 32 (≈ 70.3 µM) | 1 (≈ 2.2 µM) |
| CC12CC34C=CC(=O)C(C)(CCC(=O)Nc5c(O)ccc(C(=O)O)c5O)C3C(O1)[C@@H](Br)C2C4 (stereo partly drawn) | 32 (≈ 61.5 µM) | > 128 | 8 (≈ 15.4 µM) | 4 (≈ 7.69 µM) | 1 (≈ 1.92 µM) | 4 (≈ 7.69 µM) | 1 (≈ 1.92 µM) | 1 (≈ 1.92 µM) | 8 (≈ 15.4 µM) | 2 (≈ 3.84 µM) | 1 (≈ 1.92 µM) | 4 (≈ 7.69 µM) | 16 (≈ 30.7 µM) | 128 (≈ 246 µM) | 16 (≈ 30.7 µM) |
| CC1=CC(=O)C(C)(CCC(=O)Nc2c(O)ccc(C(=O)O)c2O)C2C3CC4CC12CC4(C)O3 (stereo not drawn) | 2 (≈ 4.39 µM) | 16 (≈ 35.1 µM) | 4 (≈ 8.78 µM) | 2 (≈ 4.39 µM) | 0.25 (≈ 0.549 µM) | ≤ 0.5 | 1 (≈ 2.2 µM) | 0.5 (≈ 1.1 µM) | 4 (≈ 8.78 µM) | 0.5 (≈ 1.1 µM) | 0.5 (≈ 1.1 µM) | 2 (≈ 4.39 µM) | 4 (≈ 8.78 µM) | 8 (≈ 17.6 µM) | ≤ 0.5 |
| CC1(CCC(=O)Nc2c(O)ccc(C(=O)O)c2O)C(=O)C=CC23CC4CC(OC4(c4ccccc4)C2)C31 (stereo not drawn) | 8 (≈ 15.9 µM) | 16 (≈ 31.8 µM) | 8 (≈ 15.9 µM) | 8 (≈ 15.9 µM) | 2 (≈ 3.97 µM) | ≤ 0.5 | 1 (≈ 1.99 µM) | 1 (≈ 1.99 µM) | 16 (≈ 31.8 µM) | 2 (≈ 3.97 µM) | 2 (≈ 3.97 µM) | 4 (≈ 7.94 µM) | 16 (≈ 31.8 µM) | 16 (≈ 31.8 µM) | ≤ 0.5 |
| CC12CC34C=CC(=O)C(C)(CCC(=O)Nc5c(O)ccc(C(=O)O)c5O)C3C(O1)[C@@H](Cl)C2C4 (stereo partly drawn) | 8 (≈ 16.8 µM) | 64 (≈ 134 µM) | 8 (≈ 16.8 µM) | 8 (≈ 16.8 µM) | 0.25 (≈ 0.525 µM) | 2 (≈ 4.2 µM) | 0.25 (≈ 0.525 µM) | 0.5 (≈ 1.05 µM) | 8 (≈ 16.8 µM) | 0.5 (≈ 1.05 µM) | 1 (≈ 2.1 µM) | 4 (≈ 8.4 µM) | 8 (≈ 16.8 µM) | 64 (≈ 134 µM) | 2 (≈ 4.2 µM) |
| Cc1onc(-c2ccccc2)c1C(=O)N[C@@H]1C(=O)N2[C@@H]1SC(C)(C)[C@@H]2C(=O)O [OXACILLIN] | < 0.25 | – | < 0.25 | – | > 32 | – | > 32 | < 0.25 | > 32 | > 32 | < 0.25 | > 32 | > 32 | – | – |
| CC12C[C@@]34C=CC(=O)[C@@](C)(CCC(=O)Nc5c(O)ccc(C(=O)O)c5O)C3[C@H](CC1C4)O2 (stereo partly drawn) [PLATENSIMYCIN] | 8 (≈ 18.1 µM) | 8 (≈ 18.1 µM) | 2 (≈ 4.53 µM) | ≤ 0.5 | 0.25 (≈ 0.566 µM) | ≤ 0.5 | 0.25 (≈ 0.566 µM) | < 0.25 | 2 (≈ 4.53 µM) | 0.25 (≈ 0.566 µM) | 1 (≈ 2.27 µM) | 1 (≈ 2.27 µM) | 2 (≈ 4.53 µM) | 8 (≈ 18.1 µM) | ≤ 0.5 |
| CN[C@H](CC(C)C)C(=O)N[C@H]1C(=O)N[C@@H](CC(N)=O)C(=O)N[C@H]2C(=O)N[C@H]3C(=O)N[C@H](C(=O)N[C@H](C(=O)O)c4cc(O)cc(O)c4-c4cc3ccc4O)[C@H](O)c3ccc(c(Cl)c3)Oc3cc2cc(c3O[C@@H]2O[C@H](CO)[C@@H](O)[C@H](O)[C@H]2O[C@H]2C[C@](C)(N)[C@H](O)[C@H](C)O2)Oc2ccc(cc2Cl)[C@H]1O [VANCOMYCIN] | – | – | – | > 128 | – | 2 (≈ 1.38 µM) | – | – | – | – | – | – | – | – | > 128 |
